Source: the supplement of paper PMC4649846

How the values were obtained:
[1] = tested on: MDA-MB-231; test: drug sensitivity score (DSS); higher = more sensitive; extreme values may be limits of the assay; conditions: incubation time: 72 h
Summary of the method: (§1)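 MDA-MB-231 cells transfected a day earlier with siRNA against BRCA1 or non-targeting control siRNA were added at 4000 cells per well to 384-well plates holding compounds at 5 concentrations. After 72 h at 37 °C and 5% CO2, viability was read by CellTiter-Blue fluorescence. IC50 and drug sensitivity score came from logistic dose–response fits in Dotmatics Studies. The score is curve area relative to the area between 10% threshold and 100% inhibition, normalised by log of top response.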

[2] = tested on: MDA-MB-231; conditions: incubation time: 72 h
Summary of the method: as §1

[3] = siRNA: siControl (non-targeting)

SMILES	IC50 of cell viability ([2]; siRNA: siBRCA1)	IC50 of cell viability [2, 3]	drug sensitivity score ([1]; siRNA: siBRCA1)	drug sensitivity score [1, 3]
CC(C)(C)c1cnc(CSc2cnc(NC(=O)C3CCNCC3)s2)o1 [SNS-032]	0.0531 µM	0.0301 µM	23.9	27.6
CN1CCN(CCOc2cc(OC3CCOCC3)c3c(Nc4c(Cl)ccc5c4OCO5)ncnc3c2)CC1 [Saracatinib]	0.652 µM	0.0905 µM	6.55	10.4
c1ccc2c(CCNc3ccc(Nc4ccncc4)cc3)c[nH]c2c1 [Serdemetan]	> 4.17 µM	2.56 µM	4.84	6.59
CNC(=O)c1cc(Oc2ccc(NC(=O)Nc3ccc(Cl)c(C(F)(F)F)c3)cc2)ccn1 [Sorafenib]	2.95 µM	3.5 µM	5.25	4.57
CN1CCN(c2nc(C3=C(c4c[nH]c5ccccc45)C(=O)NC3=O)c3ccccc3n2)CC1 [Sotrastaurin]	> 4.17 µM	> 4.17 µM	0	0
CN(N=O)C(=O)N[C@@H](C=O)[C@@H](O)[C@H](O)[C@H](O)CO [Streptozocin]	> 4.17 µM	> 4.17 µM	0	0
C=CC[C@@H]1/C=C(\C)C[C@H](C)C[C@H](OC)[C@H]2O[C@@](O)(C(=O)C(=O)N3CCCC[C@H]3C(=O)O[C@H](/C(C)=C/[C@@H]3CC[C@@H](O)[C@H](OC)C3)[C@H](C)[C@@H](O)CC1=O)[C@H](C)C[C@@H]2OC [Tacrolimus]	> 4.17 µM	> 4.17 µM	0	0
CC/C(=C(\c1ccccc1)c1ccc(OCCN(C)C)cc1)c1ccccc1 [Tamoxifen]	> 4.17 µM	> 4.17 µM	0	0
COc1cc2c(N3CCN(C(=O)Nc4ccc(OC(C)C)cc4)CC3)ncnc2cc1OCCCN1CCCCC1 [Tandutinib]	> 4.17 µM	1.13 µM	0.708	3.18
C[C@@H](C(=O)O)c1ccc(-c2ccccc2)c(F)c1 [Tarenflurbil]	> 4.17 µM	> 4.17 µM	0	0
Cn1nnc2c(C(N)=O)ncn2c1=O [Temozolomide]	> 4.17 µM	> 4.17 µM	0	0
CO[C@H]1C[C@@H]2CC[C@@H](C)[C@@](O)(O2)C(=O)C(=O)N2CCCC[C@H]2C(=O)O[C@H]([C@H](C)C[C@@H]2CC[C@@H](OC(=O)C(C)(CO)CO)[C@H](OC)C2)CC(=O)[C@H](C)/C=C(\C)[C@@H](O)[C@@H](OC)C(=O)[C@H](C)C[C@H](C)/C=C/C=C/C=C/1C [Temsirolimus]	0.0039 µM	0.00402 µM	14.6	14.4
COc1cc([C@@H]2c3cc4c(cc3[C@@H](O[C@@H]3O[C@@H]5CO[C@@H](c6cccs6)O[C@H]5[C@H](O)[C@H]3O)[C@H]3COC(=O)[C@H]23)OCO4)cc(OC)c1O [Teniposide]	2.84 µM	1.98 µM	5.24	7.09
O=C1CCC(N2C(=O)c3ccccc3C2=O)C(=O)N1 (stereo not drawn) [Thalidomide]	> 4.17 µM	> 4.17 µM	0	0
Nc1nc2[nH]cnc2c(=S)[nH]1 [Thioguanine]	1.85 µM	> 4.17 µM	3.71	0
S=P(N1CC1)(N1CC1)N1CC1 [Thiotepa]	> 4.17 µM	> 4.17 µM	0	0
Cn1cncc1[C@@](N)(c1ccc(Cl)cc1)c1ccc2c(c1)c(-c1cccc(Cl)c1)cc(=O)n2C [Tipifarnib]	0.0794 µM	0.0305 µM	12.8	14.1
CC1=C(/C=C/C(C)=C/C=C/C(C)=C/C(=O)O)C(C)(C)CCC1 [Tretinoin]	> 4.17 µM	> 4.17 µM	0.0479	0
C1CN1c1nc(N2CC2)nc(N2CC2)n1 [Triethylenemelamine]	> 4.17 µM	> 4.17 µM	0	0
Oc1ncc(N(CCCl)CCCl)c(O)n1 [Uracil mustard]	> 4.17 µM	> 4.17 µM	0	0
COc1cc2/c(=N/c3ccc(Br)cc3F)nc[nH]c2cc1OCC1CCN(C)CC1 [Vandetanib]	1.85 µM	1.86 µM	7.31	7.25
Clc1ccc(Nc2nnc(Cc3ccncc3)c3ccccc23)cc1 [Vatalanib]	> 4.17 µM	> 4.17 µM	0	0
O=C(CCCCCCC(=O)Nc1ccccc1)NO [Vorinostat]	2.04 µM	1.13 µM	6.81	9.94
Oc1nc(-c2ccc(C(F)(F)F)cc2)nc2c1CSCC2 [XAV-939]	2.82 µM	0.23 µM	1.98	4

Now from value to molecule, other results behind:

IC50 of cell viability ([2]; siRNA: siBRCA1)	IC50 of cell viability [2, 3]	SMILES	drug sensitivity score ([1]; siRNA: siBRCA1)	drug sensitivity score [1, 3]
0.61 µM	0.297 µM	Cn1cnc2c(F)c(Nc3ccc(Br)cc3Cl)c(C(=O)NOCCO)cc21 [Selumetinib]	10.3	10.7
2.77 µM	3.52 µM	CCN(CC)CCNC(=O)c1c(C)[nH]c(/C=C2\C(=O)Nc3ccc(F)cc32)c1C [Sunitinib]	5.44	4.28
0.377 µM	0.233 µM	C=CCNC1=C2C[C@@H](C)C[C@H](OC)[C@H](O)[C@@H](C)/C=C(\C)[C@H](OC(N)=O)[C@@H](OC)/C=C\C=C(/C)C(=O)NC(=CC1=O)C2=O [Tanespimycin]	15.1	17.3
> 4.17 µM	2.46 µM	COc1cc2nccc(Oc3ccc(NC(=O)Nc4cc(C)on4)c(Cl)c3)c2cc1OC [Tivozanib]	3.36	2.37
0.661 µM	0.766 µM	CC[C@@]1(O)C(=O)OCc2c1cc1n(c2=O)Cc2cc3c(CN(C)C)c(O)ccc3nc2-1 [Topotecan]	10.4	10.6
0.0668 µM	0.0289 µM	CN[C@@H]1C[C@H]2O[C@@](C)([C@@H]1OC)n1c3ccccc3c3c4c(c5c6ccccc6n2c5c31)C(=O)N[C@H]4O [UCN-01]	23.4	27.8
0.729 µM	0.273 µM	CCCCC(=O)OCC(=O)[C@]1(O)Cc2c(O)c3c(c(O)c2[C@@H](O[C@H]2C[C@H](NC(=O)C(F)(F)F)[C@H](O)[C@H](C)O2)C1)C(=O)c1c(OC)cccc1C3=O [Valrubicin]	9.56	12.5
> 4.17 µM	> 4.17 µM	C[C@]1(c2nc3c(C(N)=O)cccc3[nH]2)CCCN1 [Veliparib]	0	0
0.00572 µM	0.00565 µM	CC[C@]1(O)C[C@@H]2CN(CCc3c([nH]c4ccccc34)[C@@](C(=O)OC)(c3cc4c(cc3OC)N(C)[C@H]3[C@@](O)(C(=O)OC)[C@H](OC(C)=O)[C@]5(CC)C=CCN6CC[C@]43[C@@H]65)C2)C1 [Vinblastine]	31.4	30.9
0.00532 µM	0.00355 µM	CC[C@]1(O)C[C@H]2CN(CCc3c([nH]c4ccccc34)[C@@](C(=O)OC)(c3cc4c(cc3OC)N(C=O)[C@H]3[C@@](O)(C(=O)OC)[C@H](OC(C)=O)[C@]5(CC)C=CCN6CC[C@]43[C@@H]65)C2)C1 [Vincristine]	31.3	32.2
0.031 µM	0.0236 µM	CCC1=C[C@@H]2CN(C1)Cc1c([nH]c3ccccc13)[C@@](C(=O)OC)(c1cc3c(cc1OC)N(C)[C@H]1[C@@](O)(C(=O)OC)[C@H](OC(C)=O)[C@]4(CC)C=CCN5CC[C@]31[C@@H]54)C2 [Vinorelbine]	23.5	24
> 4.17 µM	> 4.17 µM	CS(=O)(=O)c1ccc(C(=O)Nc2ccc(Cl)c(-c3ccccn3)c2)c(Cl)c1 [Vismodegib]	0	0
0.00375 µM	0.00356 µM	COCC[n+]1c2c(n(Cc3cnccn3)c1C)C(=O)c1ccccc1C2=O [YM155]	40.2	40.6
